Results on three compounds are retold here after PMC12717099, “Peptidoglycan recruitment by a penicillin binding protein” (Nature Communications, 2025).

As a reminder, the Kd is a measure of binding affinity in units of concentration.

In assay [1] the test system is PBP5:ceftaroline complex (1:8). Briefly: NMR CSP titration of SP2 into ceftaroline-saturated PBP5. The format is binding, Enterococcus faecium. Conditions: PBP5:ceftaroline 1:8. How it is done:
(§1) Data was processed using Topspin 4.1.4 (Bruker) and analyzed using NMRFAM-SPARKY 1.3 and Poky (build number 20240829)[20],[21]. The sequence-specific backbone assignment of PBP5 is publicly available at BMRBID 51690.
(§2) SPs (SP1 to SP7) were titrated into 0.5 mM (^2H,^15N)-labeled and 0.1 mM (^2H,^15N)/^13C ILV labeled PBP5 at molar ratios of 0:1, 5:1, 10:1, 20:1, 40:1, 60:1, and 80:1 (stem peptide/SP:PBP5; molar ratios). 2D [^1H,^15N] TROSY or 2D [^1H,^13C] HMQC spectra were recorded for each titration point. SPs were solubilized in NMR buffer. Chemical shift perturbations (Δδ) between PBP5 and SP bound PBP5 spectra were calculated using Eq. 1,1 Δδppm=ΔδH^2+ΔδX/Y^2 where, X is ^15N or ^13C and Y is the constant i.e., 10 for ^15N and 4 for ^13C.
Residues with significant CSPs were identified by calculating the standard deviation of all CSPs (σ), then excluding any CSPs larger than average+2σ, recalculating σ as a new corrected σ0, and then repetitively removing CSPs above 2σ0 until no additional CSPs can be removed. CSPs above ≥2σ2 was the statistical threshold for ^1H/^15N backbone CSP analysis and ≥2xσ1 for ^1H/^13C methyl ILV data for the interaction of SP1 with PBP5. The same threshold values were used for all other peptides to allow for direct comparison with the SP1/PBP5 interaction. […]

The test system of assay [2] is E. faecium D344SRF, Wild Type. Briefly: MIC by broth microdilution, Wild Type. It is filed as cell-based, Enterococcus faecium. The note with it: strain Wild Type; BHI broth microdilution, 37 °C, 20 h, read by eye; n=3. The protocol: (§3) E. faecium strains were streaked fresh from −80 °C stored glycerol stocks onto brain heart infusion (BHI) agar plates and incubated for 18 h at 37 °C. Strains harboring the plasmid derivatives were grown under antibiotic pressure on agar plates containing kanamycin at 1500 µg/ml. A single colony was inoculated into BHI or BHI-kanamycin (1500 µg/ml) for overnight cultures (18 h).
MIC determination was performed using a standard broth microdilution technique in duplicate from independent cultures. Overnight cultures were inoculated into 3 ml of BHI or BHI-kanamycin (1500 µg/ml) broth in a dilution of 1:100 and incubated until an OD600 of ~0.5 was reached. Cultures were diluted 1:1000 and inoculated into the 96-well plates with the corresponding antibiotics to be tested. Plates were incubated at 37 °C for 20 h and read by eye. The MICs were defined as the lowest antibiotic concentration that inhibited growth.
For orientation: Dilution methods test growth across graded concentrations, often in twofold steps.

In assay [3] the test system is E. faecium D344SRF pCWR624Δpbp5_pbp5_V5. Kind of assay: MIC by broth microdilution, pbp5_V5. It is filed as cell-based, Enterococcus faecium. Conditions: strain pbp5_V5 (Q396A_E397A); 37 °C, 20 h; n=3. How it is done: (§4) The synthetic genes were purchased from GeneWiz (South Plainfield, NJ). The ribosome binding site sequence AGGAGG (Shine-Dalgarno), and a string of five A’s followed by the sequence […], that corresponds to the first 15 bp found in pbp5 from E. faecium C68 were added upstream of the START codon. The terminator sequence […] was added downstream of the STOP codon. BamHI restriction sites were added to the flanking 5′ and 3′ ends. The synthetic genes were inserted into the vector pCWR624Δpbp5. This vector was derived from pCWR624[10], in which the pbp5 gene from D366 was excised by digestion with BamHI followed by re-ligation of the vector, allowing subsequent insertion of modified synthetic pbp5s into the BamHI site downstream of ftsWEfm and psr from E. faecium C68[10]. The synthetic genes were inserted in a BamHI site located downstream of psr. The proper orientation was confirmed by PCR amplification using the forward primer OR_pbp5_FOR_1 (5′-[…]-3′) and the reverse primer OR_pbp5_REV_1 (5′-[…]-3′). Plasmids were sequence verified for the specific binding site mutations. The resulting constructions were electroporated into the natural pbp5(-) mutant E. faecium D344SRF with a selection on brain heart infusion agar (BHI) plates containing kanamycin (1500 µg/ml).
as §3
MIC determination was performed using a standard broth microdilution technique in duplicate from independent cultures. Overnight cultures were inoculated into 3 ml of BHI or BHI-kanamycin (1500 µg/ml) broth in a dilution of 1:100 and incubated until an OD600 of ~0.5 was reached. Cultures were diluted 1:1000 and inoculated into the 96-well plates with the corresponding antibiotics to be tested. Plates were incubated at 37 °C for 20 h and read by eye. […]

The test system of assay [4] is E. faecium D344SRF pCWR624Δpbp5_pbp5_V2. Briefly: Disk diffusion assay, pbp5_V2. Conditions: strain pbp5_V2 (N523A_Q627A); 37 °C, 24 h; n=3. The format is cell-based, Enterococcus faecium. The protocol:
as §4, §3
Antibiotic disks used were manufactured by BD BBL^TM. Disk diffusion assays were performed according to the Clinical and Laboratory Standards Institute (CLSI) guidance. Overnight cultures were inoculated into 3 ml of BHI or BHI-kanamycin (1500 µg/ml) broth with a dilution of 1:100 and incubated until an OD600 of ~0.5 was reached. […] The plates were incubated at 37 °C and the zones of inhibition were measured after 24 h. […]
In general terms: In agar diffusion tests the substance spreads into inoculated agar from a disc or well.

The target in the next assay is PBP5 (PBP5_37-678). Briefly: NMR chemical shift perturbation titration (2D [1H,15N] TROSY, 2D [1H,13C] ILV methyl HMQC) of stem peptides / PG into PBP5. The format is binding, Enterococcus faecium. Conditions: NH CSP titration up to 1:80 PBP5:SP1, not saturated: KD overestimated (upper bound); 10 mM MES pH 5.8, 25 mM NaCl, 308 K; read-out: KD, mean±std of residue-specific values. The protocol: as §1, §2
Residues with significant CSPs were identified by calculating the standard deviation of all CSPs (σ), then excluding any CSPs larger than average+2σ, recalculating σ as a new corrected σ0, and then repetitively removing CSPs above 2σ0 until no additional CSPs can be removed. CSPs above ≥2σ2 was the statistical threshold for ^1H/^15N backbone CSP analysis and ≥2xσ1 for ^1H/^13C methyl ILV data for the interaction of SP1 with PBP5. The same threshold values were used for all other peptides to allow for direct comparison with the SP1/PBP5 interaction. The identical significance analysis was also performed for PenG/ceftaroline saturated PBP5 (1:8 molar ratio of PBP5 to β-lactam antibiotics was used to ensure saturation of an extended time period needed for the SP titrations) SP interaction studies; CSPs above ≥2σ3 was the statistical threshold for ^1H/^15N backbone CSP analysis and ≥2xσ2 for ^1H/^13C methyl ILV data to identify all residues with a statistically significant change in its chemical shift upon SP interaction.
Residue specific KD values were calculated by using Eq. 2[23],2 CSPobs=CSPmax/2PP+S+KD−P+S+KD^2−4[S][P] where P and S are the concentration of PBP5 and SP1, respectively. CSPobs is the experimentally observed chemical shift value and CSPmax is the largest experimentally observed chemical shift value of the residue. […] The lack of saturation was due to the limited amount of available SP peptide due to their difficult synthesis. Residues used for KD calculation were common residues with statistically significant CSPs in the interaction studies of SP1 and SP2 with PBP5 at a 1:80 ratio.

With D-Lac-L-Ala-D-iGln-L-Lys(D-iAsn) [SP2], the “CSPs with ceftaroline-saturated PBP5 vs β-lactam free and PenG-saturated PBP5, in words” value in assay [1] was “virtually identical”.

On to `CO/N=C(\C(=O)N[C@@H]1C(=O)N2C(C(=O)O)=C(CSc3nc(=O)c(=O)[nH]n3C)CS[C@H]12)c1csc(N)n1` [Ceftriaxone, ceftriaxone], for which the “MIC (µg/ml) [Range]” value is 50 [25-100] µg/ml in assay [2] and > 3200 [>3200] µg/ml in assay [3]. In assay [4], the “Zone Size (mm) [Range]” value is 24 [24-26] mm.

With “D-Lac-L-Ala-D-iGln-L-Lys(D-iAsn)-D-Ala-D-Ala [SP1]”, the Kd on PBP5 (PBP5_37-678) was around 4 mM.
